From patent publication US7595401B2, “Therapeutic compounds and their use in cancer” (Myriad Pharmaceuticals, Inc., priority 2006, dated 2009) come the findings set out here.

The structures appear in SMILES notation.

The test system of the first assay is purified human Hsp90. Nature of the assay: Binding Assay: fluorescence polarization with BODIPY-labeled geldanamycin. To be noted: 5 μM compound, BODIPY-GM 10 nM, Hsp90 30 nM. The method in brief:
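Compounds in 2% DMSO final compete with 10 nM BODIPY-GM for 30 nM purified human Hsp90, incubated overnight at room temperature in pH 7.3 HEPES buffer containing Na2MoO4 and DTT. Polarization (mP, ex/em 485/530) normalized to DMSO gives percent inhibition; autofluorescence-confounded data excluded.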
A general note: In fluorescence polarisation assays a small probe gives low polarisation when free and higher when bound to something large.
Consider `CCC(C)C(Cn1cnc(N)c2nc(Sc3cc4c(cc3Br)OCO4)nc1-2)c1ccccc1` (stereo not shown) [Example 100, 8-(6-bromo-benzo[1,3]dioxol-5-ylsulfanyl)-3-(3-methyl-2-phenyl-pentyl)-3H-purin-6-ylamine], for which the % Inhibition (in general, the drop in the measured response relative to a control, in per cent) at 5 μM Compound Concentration is 39%.

Regarding `CC(C)N1CCN(CCn2cnc(N)c3nc(Sc4cc5c(cc4Br)OCO5)nc2-3)CC1` [Example 488, 8-[(6-Bromo-1,3-benzodioxol-5-yl)thio]-3-[2-(4-isopropylpiperazin-1-yl)ethyl]-3H-purin-6-amine], the “% Inhibition at 5 μM Compound Concentration” value (from here on “% Inhibition”) is 29%.

`C=Cn1cnc(N)c2nc(Sc3cc4c(cc3Br)OCO4)nc1-2` [Example 499, 8-(6-bromo-benzo[1,3]dioxol-5-ylsulfanyl)-3-vinyl-3H-6-ylamine]: the “% Inhibition” value was 21%.

Consider `Cc1ccccc1CCn1cnc(N)c2nc(Sc3cc4c(cc3Br)OCO4)nc1-2` [Example 156, 8-(6-bromo-benzo[1,3]dioxol-5-ylsulfanyl)-3-(2-o-tolyl-ethyl)-3H-purin-6-ylamine], for which the “% Inhibition” value was 16%.

In the case of `COc1ccc(OC)c(Sc2nc3c(N)ncnc3n2CCc2cccc(Cl)c2Cl)c1` [Example 73, 9-[2-(2,3-Dichloro-phenyl)-ethyl]-8-(2,5-dimethoxy-phenylsulfanyl)-9H-purin-6-ylamine], the “% Inhibition” value is 2%.

Turning to `CC(C)(C)OC(=O)NC(CCn1cnc(N)c2nc(Sc3cc4c(cc3Br)OCO4)nc1-2)C1CCCC1` (stereo not shown) [Example 680, {3-[6-Amino-8-(6-bromo-benzo[1,3]dioxol-5-ylsulfanyl)-purin-3-yl]-1-cyclopentyl-propyl}-carbamic acid tert-butyl ester], the “% Inhibition” value is reported as 14%.

As to `COc1ccc(OC)c(Sc2nc3c(N)ncn(CCc4c(C)cc(C)cc4C)c-3n2)c1` [Example 56, 8-(2,5-dimethoxy-phenylsulfanyl)-3-[2-(2,4,6-trimethyl-phenyl)-ethyl]-3H-purin-6-ylamine], the “% Inhibition” value turned out to be 3%.

Take `Nc1ncnc2c1nc(Sc1ccc3c(c1)OCO3)n2CCCc1ccccc1` [Example 6, 8-(Benzo[1,3]dioxol-5-ylsulfanyl)-9-(3-phenyl-propyl)-9H-purin-6-ylamine]: the “% Inhibition” value worked out at 66%.

Staying with this assay, now noted: BODIPY-GM 10 nM, Hsp90 30 nM.
Turning to `C#CCN1CCC(CCn2c(Sc3cc4c(cc3Br)OCO4)nc3c(N)ncnc32)CC1` [Example 625, 8-[(6-Bromo-1,3-benzodioxol-5-yl)thio]-9-[2-(1-prop-2-yn-1-ylpiperidin-4-yl)ethyl]-9 H-purin-6-amine], the IC50 (in general, the concentration that gives 50% inhibition) worked out at 110 nM.

`Nc1ncnc2c1nc(Sc1cc(Cl)c(Cl)cc1Cl)n2CCc1ccccc1Cl` [Example 262, 9-[2-(2-Chlorophenyl)ethyl]-8-[(2,4,5-trichlorophenyl)thio]-9H-purin-6-amine]: the IC50 was above 25000 nM.

For `CCOP(=O)(OCC)N1CCCCC1CCn1c(Sc2cc3c(cc2Br)OCO3)nc2c(N)ncnc21` (stereo not shown) [Example 643, Diethyl [2-(2-{6-amino-8-[(6-bromo-1,3-benzodioxol-5-yl)thio]-9 H-purin-9-yl}ethyl)piperidin-1-yl]phosphonate], the half-inhibitory concentration (IC50) was 5000 nM.

Compound `CC(=O)N1CCC(CCn2c(Sc3nc4c(Cl)cccc4s3)nc3c(N)ncnc32)CC1` [Example 653, 9-[2-(1-Acetylpiperidin-4-yl)ethyl]-8-[(4-chloro-1,3-benzothiazol-2-yl)thio]-9H-purin-6-amine] had an IC50 above 2000 nM.

With `Nc1ncnc2c1nc(Sc1cc3c(cc1Br)OCO3)n2CC1CCNCC1` [Example 648, 8-[(6-bromo-1,3-benzodioxol-5-yl)thio]-9-(piperidin-4-ylmethyl)-9H-purin-6-amine], the IC50 is 684 nM.

Compound `CC(=O)N1CCC(CCn2c(Sc3nc4ccc(F)cc4s3)nc3c(N)ncnc32)CC1` [Example 655, 9-[2-(1-Acetylpiperidin-4-yl)ethyl]-8-[(6-fluoro-1,3-benzothiazol-2-yl)thio]-9H-purin-6-amine] gave an IC50 above 5000 nM.

In turn, `Nc1ncnc2c1nc(Sc1cc3c(cc1Br)OCO3)n2CCC1CCN(C(=O)C2(N)CC2)CC1` [Example 751, 9-(2-{1-[(1-Amino-cyclopropyl)carbonyl]piperidine-4-yl}ethyl)-8-[(6-bromo-1,3-benzodioxol-5-yl)thio]-9H-purin-6-amine] had an IC50 of 195 nM.

For the compound `Nc1ncnc2c1nc(Sc1cc3c(cc1Br)OCO3)n2CCC1CCN(C(=O)[C@@H]2CCN2)CC1` [Example 752, 9-(2-{1-[(2S)-Azetidin-2-ylcarbonyl]piperidin-4-yl}ethyl)-8-[(6-bromo-1,3-benzo-dioxol-5-yl)thio]-9H-purin-6-amine], the IC50 came out at 130 nM.

The compound `COc1ccc(OC)c(Sc2nc3c(N)ncnc3n2CCc2cccs2)c1` [Example 199] registered a concentration for half-maximal inhibition (IC50) of 110 nM.

On to `COc1ccc(OC)c(Sc2nc3c(N)ncnc3n2CCc2cccc(Cl)c2Cl)c1` [Example 73, 9-[2-(2,3-Dichloro-phenyl)-ethyl]-8-(2,5-dimethoxy-phenylsulfanyl)-9H-purin-6-ylamine], for which the IC50 was above 3000 nM.

For the compound `COc1cc(Sc2nc3c(N)ncnc3n2CCc2ccc(Cl)cc2)cc(OC)c1OC` [Example 31, 9-[2-(4-Chloro-phenyl)-ethyl]-8-(3,4,5-trimethoxy-phenylsulfanyl)-9H-purin-6-ylamine], the IC50 is above 10000 nM.

`CC(C)(C)OC(=O)NC(CCn1c(Sc2cc3c(cc2Br)OCO3)nc2c(N)ncnc21)C1CCSCC1` (stereo not shown) [Example 666, tert-Butyl[3-{6-amino-8-[(6-bromo-1,3-benzodioxol-5-yl)thio]-9H-purin-9-yl}-1-(tetrahydro-2H-thiopyran-4-yl)propyl]carbamate] yielded an IC50 of 800 nM.

Take `COc1ccc(C)cc1Sc1nc2c(N)ncnc2n1CCc1ccccc1Cl` [Example 324, 9-[2-(2-Chlorophenyl)ethyl]-8-[(2-methoxy-5-methylphenyl)thio]-9H-purin-6-amine]: the IC50 came to 2800 nM.

`COc1ccc(OC)c(Sc2nc3c(N)ncnc3n2Cc2ccc(F)cc2)c1` [Example 266, 8-[(2,5-Dimethoxyphenyl)thio]-9-(4-fluorobenzyl)-9H-purin-6-amine] came in with an IC50 of 12000 nM.

Compound `CCOC(=O)CNC(=O)N1CCC(CCn2c(Sc3cc4c(cc3Br)OCO4)nc3c(N)ncnc32)CC1` [Example 434, Ethyl N-{[4-(2-{6-amino-8-[(6-bromo-1,3-benzodioxol-5-yl)thio]-9H-purin-9-yl}ethyl)piperidin-1-yl]carbonyl}glycinate] returned an IC50 of 37 nM.

With `COc1cc(Sc2nc3c(N)ncnc3n2CCc2ccccc2)c(OC)cc1Cl` [Example 257, 8-[(4-Chloro-2,5-dimethoxyphenyl)thio]-9-(2-phenylethyl)-9H-purin-6-amine], the IC50 was above 25000 nM.

`Nc1ncnc2c1nc(Sc1ccc3c(c1)OCO3)n2CCCc1ccccc1` [Example 6, 8-(Benzo[1,3]dioxol-5-ylsulfanyl)-9-(3-phenyl-propyl)-9H-purin-6-ylamine] gave an IC50 of 1060 nM.

In turn, `Nc1ncnc2c1nc(Sc1cc3c(cc1Br)OCO3)n2CCC1CCOCC1` [Example 353, 8-[(6-Bromo-1,3-benzodioxol-5-yl)thio]-9-[2-(tetrahydro-2H-pyran-4-yl)ethyl]-9H-purin-6-amine] showed an IC50 of 57 nM.

For `COc1ccc(OC)c(Sc2nc3c(N)ncnc3n2CC2(c3ccc(Cl)cc3)CC2)c1` [Example 279, 9-{[1-(4-Chlorophenyl)cyclopropyl]methyl}-8-[(2,5-dimethoxyphenyl)thio]-9H-purin-6-amine], the half-inhibitory concentration (IC50) was above 25000 nM.

For `Nc1ncnc2c1nc(Sc1cc3c(cc1Br)OCO3)n2CCC1CCN(C(=O)C2CCC2)CC1` [Example 512, 8-[(6-Bromo-1,3-benzodioxol-5-yl)thio]-9-{2-[1-(cyclobutylcarbonyl)piperidin-4-yl]ethyl}-9 H-purin-6-amine], the IC50 is 110 nM.
